Data: US9850272B2, “Therapeutically active estratrienthiazole derivatives as inhibitors of 17.beta-hydroxy-steroid dehydrogenase, type 1” (FORENDO PHARMA LTD, priority 2013, dated 2017)
Where a name gives a salt, the structure may show the parent alone.

Columns and labels:
[1] = target: T1, Recombinant Human 17β-HSD1 (Homo sapiens, UniProt P14061); assay: Inhibition of recombinant human 17β-HSD1 (conversion of 3H-estrone to estradiol, HPLC); assay type: biochemical; conditions: inhibitor at 1 μM, 30 nM estrone, 1 mM NADPH, 30 min at RT; for inhibition at 1 µM: read-out: 17β-HDS1 Inhibition % at 1 μM
T1 construct: made in house; host or cells: Sd9 (Sf9) insect cells, baculovirus (Bac to Bac Expression System)
T1 sequence (P14061 1-328): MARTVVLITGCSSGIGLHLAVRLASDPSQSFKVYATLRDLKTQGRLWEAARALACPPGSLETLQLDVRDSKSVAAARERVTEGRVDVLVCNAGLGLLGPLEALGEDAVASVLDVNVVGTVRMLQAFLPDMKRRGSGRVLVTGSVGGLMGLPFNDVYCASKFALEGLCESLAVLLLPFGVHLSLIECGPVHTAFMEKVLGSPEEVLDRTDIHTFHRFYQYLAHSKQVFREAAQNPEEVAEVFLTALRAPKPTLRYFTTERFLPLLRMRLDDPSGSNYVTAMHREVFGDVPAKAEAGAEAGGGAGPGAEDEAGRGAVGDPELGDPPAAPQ
Description: 17β-HSD1 Production and Isolation:
Recombinant baculovirus was generated by the “Bac to Bac Expression System” (Invitrogen). Recombinant bacmid was transfected to Sd9 insect cells using “Cellfectin Reagent” (Invitrogen). 60 h later cells were harvested; the microsomal fraction was isolated as described by Puranen, T. J., Poutanen, M. H., Peltoketo, H. E., Vihko, P. T. and Vihko, R. K. (1994) Site-directed mutagenesis of the putative active site of human 17 β-hydroxysteroid dehydrogenase type 1. Biochem. J. 304: 289-293. Aliquots were stored frozen until determination of enzymatic activity.
Assay—Inhibition of Recombinant Human 17β-HSD1:
Recombinant protein (1 μg/ml) was incubated in 20 mM KH2PO4 pH 7.4 with 30 nM estrone (including 800.000 cpm/ml of ^3H-estrone) and 1 mM NADPH for 30 min at RT, in the presence of the potential inhibitor at concentrations 1 μM or 0.1 μM. Inhibitor stock solutions were prepared in DMSO. Final concentration of DMSO was adjusted to 1% in all samples. The enzyme reaction was stopped by addition of 10% trichloroacetic acid (final concentration). Samples were centrifuged in a microtiter plate at 4000 rpm for 10 min. Supernatants were applied to reverse phase HPLC on a Waters Symmetry C18 column, equipped with a Waters Sentry Guard column. Isocratic HPLC runs were performed at RT at a flow rate of 1 ml/min in acetonitrile:water 48:52 as running solvent. Radioactivity was monitored in the eluate by a Packard Flow Scintillation Analyzer. Total radioactivity for estrone and estradiol were determined in each sample and percent conversion of estrone to estradiol was calculated according to the following formula:
(§1) Percent inhibition was calculated flowingly: % inhibition=100−% conversion

[2] = target: T2, Recombinant Human 17β-HSD2 (Homo sapiens, UniProt P37059); assay: Inhibition of recombinant human 17β-HSD2 (conversion of 3H-estradiol to estrone, HPLC); assay type: biochemical; conditions: inhibitor at 1 μM, 50 nM estradiol, 1 mM NADH, 30 min at RT; for inhibition at 1 µM: read-out: 17β-HSD2 Inhibition % at 1 μM
T2 construct: made in house; host or cells: Sd9 (Sf9) insect cells, baculovirus (Bac to Bac Expression System)
T2 sequence (P37059 1-387): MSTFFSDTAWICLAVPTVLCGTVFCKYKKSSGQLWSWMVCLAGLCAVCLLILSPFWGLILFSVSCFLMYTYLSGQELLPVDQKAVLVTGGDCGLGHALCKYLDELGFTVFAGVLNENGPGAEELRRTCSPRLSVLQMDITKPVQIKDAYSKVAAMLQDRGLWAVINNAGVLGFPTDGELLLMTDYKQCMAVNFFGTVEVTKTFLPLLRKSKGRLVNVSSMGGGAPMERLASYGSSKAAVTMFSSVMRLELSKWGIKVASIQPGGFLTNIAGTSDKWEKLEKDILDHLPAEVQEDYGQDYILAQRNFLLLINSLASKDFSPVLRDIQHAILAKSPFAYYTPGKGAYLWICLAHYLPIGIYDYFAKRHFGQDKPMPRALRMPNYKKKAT
Description: 17β-HSD2 Production and Isolation:
Similarly to 17β-HSD1 the Recombinant baculovirus was generated by the “Bac to Bac Expression System” (Invitrogen). Recombinant bacmid was transfected to Sd9 insect cells using “Cellfectin Reagent” (Invitrogen). 60 h later cells were harvested and supernatant were fractionated by the following protocol: • cells were dissolved into 40 ml of A-buffer (40 mM TRIS, pH8.0, 20% glycerol, 20 μM NAD, 0.4 mM PMSF, 150 mM NaCl, 0.5% dodecyl-β-maltoside+protease inhibitor cocktail) • cells were sonicated • lysate was incubated on ice for 15 min • lysate was centrifuged 5000 rpm 15 min, +4° C. • centrifugation of the supernatant 180.000 g 30 min, +4° C. • pellet was dissolved into 8 ml of A-buffer • not resuspended material was removed by centrifugation 5000 rpm 15 min, +4° C. • the clear supernatant was divided into 100 μl aliquots and were stored frozen until determination of enzymatic activity.
The amount of 17β-HSD2 was analysed by immunoblotting and total protein concentration of each extract batch was determined.
Assay—Inhibition of Recombinant Human 17β-HSD2:
Recombinant protein (4 μg/ml) was incubated in 20 mM KH2PO4 pH 8.5 with 50 nM estradiol (including 800.000 cpm/ml of ^3H-estradiol) and 1 mM NADH for 30 min at RT, in the presence of the potential inhibitor at concentrations 1 μM or 0.1 μM. Inhibitor stock solutions were prepared in DMSO. Final concentration of DMSO was adjusted to 1% in all samples. The enzyme reaction was stopped by addition of 10% trichloroacetic acid (final concentration). Samples were centrifuged in a microtiter plate at 4000 rpm for 10 min. Supernatants were applied to reverse phase HPLC on a Waters Symmetry C18 column, equipped with a Waters Sentry Guard column. Isocratic HPLC runs were performed at RT at a flow rate of 1 ml/min in acetonitrile:water 48:52 as running solvent. Radioactivity was monitored in the eluate by a Packard Flow Scintillation Analyzer. Total radioactivity for estrone and estradiol were determined in each sample and percent conversion of estradiol to estrone was calculated according to the following formula:
as §1

Molecule `Cc1cnc(NC(=O)CC[C@@H]2C[C@H](O)[C@@]3(C)CCC4c5ccc(O)c(NC(C)C)c5CCC4C23)s1` (stereo partly drawn) [Compound 71, 3-((13S,15R,17S)-3,17-Dihydroxy-4-isopropylamino-13-methyl-7,8,9,11,12,13,14,15,16,17-decahydro-6H-cyclopenta[a]phenanthren-15-yl)-N-(5-methylthiazol-2-yl)propionamide] has an inhibition at 1 µM [1] of 49% and an inhibition at 1 µM [2] of 10%.
Molecule `Cc1cnc(NC(=O)CC[C@@H]2C[C@H](O)[C@@]3(C)CCC4c5ccc(O)c(NC(C)CO)c5CCC4C23)s1` (stereo partly drawn) [Compound 72, 3-[(13S,15R,17S)-3,17-Dihydroxy-4-(2-hydroxy-1-methyl-ethylamino)-13-methyl-7,8,9,11,12,13,14,15,16,17-decahydro-6H-cyclopenta[a]phenanthren-15-yl]-N-(5-methylthiazol-2-yl)propionamide] has an inhibition at 1 µM [1] of 50% and an inhibition at 1 µM [2] of 0%.
For `Cc1cnc(NC(=O)CC[C@@H]2CC(NC(C)C)[C@@]3(C)CCC4c5ccc(O)cc5CCC4C23)s1` (stereo partly drawn) [Compound 73, 3-[(13S,15R)-3-Hydroxy-17-isopropylamino-13-methyl-7,8,9,11,12,13,14,15,16,17-decahydro-6H-cyclopenta[a]phenanthren-15-yl]-N-(5-methylthiazol-2-yl)propionamide], the inhibition at 1 µM [1] was 86% and the inhibition at 1 µM [2] was 11%.
`Cc1cnc(NC(=O)CC[C@@H]2C[C@H](NCC(C)C)[C@@]3(C)CCC4c5ccc(O)cc5CCC4C23)s1` (stereo partly drawn) [Compound 74, 3-((13S,15R)-3-Hydroxy-17-isobutylamino-13-methyl-7,8,9,11,12,13,14,15,16,17-decahydro-6H-cyclopenta[a]phenanthren-15-yl]-N-(5-methylthiazol-2-yl)propionamide] showed an inhibition at 1 µM [1] of 80% and an inhibition at 1 µM [2] of 2%.
`Cc1cnc(NC(=O)CC[C@@H]2C[C@H](NCC(C)C)[C@@]3(C)CCC4c5cc(C(C)(C)C)c(O)cc5CCC4C23)s1` (stereo partly drawn) [Compound 75b, 3-((13S,15R)-2-tert-Butyl-3-Hydroxy-17-isobutylamino-13-methyl-7,8,9,11,12,13,14,15,16,17-decahydro-6H-cyclopenta[a]phenanthren-15-yl]-N-(5-methylthiazol-2-yl)propionamide] showed an inhibition at 1 µM [1] of 77% and an inhibition at 1 µM [2] of 13%.
`Cc1cnc(NC(=O)CC[C@@H]2C[C@H](NCc3ccco3)[C@@]3(C)CCC4c5ccc(O)cc5CCC4C23)s1` (stereo partly drawn) [Compound 76, 3-((13S,15R)-17-[(Furan-2-ylmethyl)-amino]-3-hydroxy-13-methyl-7,8,9,11,12,13,14,15,16,17-decahydro-6H-cyclopenta[a]phenanthren-15-yl]-N-(5-methylthiazol-2-yl)propionamide] showed an inhibition at 1 µM [1] of 85% and an inhibition at 1 µM [2] of 4%.
`COCCNC1C[C@@H](CCC(=O)Nc2ncc(C)s2)C2C3CCc4cc(O)ccc4C3CC[C@]12C` (stereo partly drawn) [Compound 77, 3-((13S,15R)-3-Hydroxy-17-(2-methoxyethylamino)-13-methyl-7,8,9,11,12,13,14,15,16,17-decahydro-6H-cyclopenta[a]phenanthren-15-yl]-N-(5-methylthiazol-2-yl)propionamide] gave an inhibition at 1 µM [1] of 84% and an inhibition at 1 µM [2] of 1%.
Work on `Cc1cnc(NC(=O)CC[C@@H]2CC(NCCO)[C@@]3(C)CCC4c5ccc(O)cc5CCC4C23)s1` (stereo partly drawn) [Compound 78, 3-((13S,15R)-3-Hydroxy-17-(2-hydroxyethylamino)-13-methyl-7,8,9,11,12,13,14,15,16,17-decahydro-6H-cyclopenta[a]phenanthren-15-yl]-N-(5-methylthiazol-2-yl)propionamide] yielded an inhibition at 1 µM [1] of 88% and an inhibition at 1 µM [2] of 2%.
With `COCCNC1C[C@@H](CCC(=O)Nc2ncc(C)s2)C2C3CCc4cc(O)c(C(C)(C)C)cc4C3CC[C@]12C` (stereo partly drawn) [Compound 79, 3-((13S,15R)-2-tert-Butyl-3-hydroxy-17-(2-methoxyethylamino)-13-methyl-7,8,9,11,12,13,14,15,16,17-decahydro-6H-cyclopenta[a]phenanthren-15-yl)-N-(5-methylthiazol-2-yl)propionamide] the inhibition at 1 µM [1] was 75% and the inhibition at 1 µM [2] was 17%.
`Cc1cnc(NC(=O)CC[C@@H]2CC(NCCCN(C)C)[C@@]3(C)CCC4c5ccc(O)cc5CCC4C23)s1` (stereo partly drawn) [Compound 80a, 3-[(13S,15R)-17-(3-Dimethylamino-propylamino)-3-hydroxy-13-methyl-7,8,9,11,12,13,14,15,16,17-decahydro-6H-cyclopenta[a]phenanthren-15-yl]-N-(5-methylthiazol-2-yl)propionamide] showed an inhibition at 1 µM [1] of 70% and an inhibition at 1 µM [2] of 1%.
For `Cc1cnc(NC(=O)CC[C@@H]2CC(NCCCN(C)C)[C@@]3(C)CCC4c5ccc(O)cc5CCC4C23)s1` (stereo partly drawn) [Compound 80b, 3-[(13S,15R)-17-(3-Dimethylamino-propylamino)-3-hydroxy-13-methyl-7,8,9,11,12,13,14,15,16,17-decahydro-6H-cyclopenta[a]phenanthren-15-yl]-N-(5-methylthiazol-2-yl)propionamide dihydrochloride], the “17β-HDS1 Inhibition % at 1 μM” value ([1]; dihydrochloride) was 61% and the “17β-HSD2 Inhibition % at 1 μM” value ([2]; dihydrochloride) was 2%.
Molecule `Cc1cnc(NC(=O)CC[C@@H]2CC(NCCN(C)C)[C@@]3(C)CCC4c5ccc(O)cc5CCC4C23)s1` (stereo partly drawn) [Compound 81, 3-[(13S,15R)-17-(2-Dimethylamino-ethylamino)-3-hydroxy-13-methyl-7,8,9,11,12,13,14,15,16,17-decahydro-6H-cyclopenta[a]phenanthren-15-yl]-N-(5-methylthiazol-2-yl)propionamide] has an inhibition at 1 µM [1] of 71% and an inhibition at 1 µM [2] of 2%.
